Test results as given in patent US10213494B2, “Treatment of synucleinopathies” (The Brigham and Women's Hospital, Inc., priority 2007, dated 2019).

Columns and labels:
[1] = test system: rat αS in MES23.5 cells; test: Sandwich ELISA of co-transfected rat αS in MES23.5 cells; type: cell-based; details: human Cathepsin D, same paradigm
[2] = test system: α-synuclein protein (wild-type, human) in MES23.5 cells; test: Sandwich ELISA of intracellular α-synuclein in MES23.5 cells co-transfected with wild-type human SNCA cDNA and lysosomal enzyme cDNA; type: cell-based; details: for intracellular α-synuclein level, % of control levels: n=2
Description: Sera from six rabbits were raised and affinity-purified at Open Biosystems, Inc. (openbiosystems.com) against recombinant, full-length human αS. Recombinant αS had been HPLC- and MS-characterized and subjected to amino acid composition and protein concentration analyses. For ELISA, 384-well MaxiSorp plates (Nunc, Inc) were coated with 50 μl/well capturing polyclonal Ab (hSA-2) diluted in coating buffer (NaHCO3 with 0.2% NaN3, pH 9.6). Following washes with PBS/0.05% Tween-20 (PBS-T), plates were blocked for 2 hours at 37° C. in blocking buffer (1.125% fish skin gelatin; PBS-T). After 4 washes, samples were loaded and incubated at 4° C. for 12 hours. Biotinylated Syn-1 mAb (as the assaying Ab) was generated using 200 μg Sulfo-NHS-LC Biotin (Pierce), diluted in blocking buffer and added to the plate for 2 hours at 37° C. Following 4 washes, ExtrAvidin phosphatase (Sigma) diluted in blocking buffer was applied for 1 hr at 37° C. Color development was carried out by using Fast-p-Nitrophenyl Phosphate (Sigma) and monitored kinetically at OD 405 nm every 5 minutes for up to 60 minutes.
To optimize a ‘DNA: LIPOFECTAMINE® 2000’ ratio with low cell toxicity, MES23.5 cells were transfected with either 0.25, 0.5 or 1 μg αS-encoding, wild-type, human SNCA cDNA plus empty vector cDNA up to a total of 5.5 μg DNA per 10 cm dish. 24 hours after transfection, cell lysates were harvested as described above. For serial dilutions of cell lysates, blocking buffer containing 0.5% lysate from vector-transfected wells was used as diluent, which was also used to create the blank and the corresponding standard curve of recombinant human αS. Saturation kinetics were examined for identification of time point(s) where standards and sample dilutions were in the log phase.
MES cells were transfected with 0.5 μg per 10 cm dish of αS-encoding SNCA cDNA-carrying plasmid, plus 5 μg per 10 cm dish of wild-type or mutant, human GBA-encoding plasmid. The GBA variants used were wild type, N370S, D409H, L444P, E235A, and E340A. These 5 GBA mutants were created by site-directed mutagenesis, using the Quickchange® kit (Stratagene), and sequence-verified. The N370S, D409H and L444P are known to occur (in the homozygous or compound heterozygous state) in Gaucher disease in the heterozygous state in Parkinson Disease patients and/or patients with dementia with Lewy bodies. The E235A and E340A mutant GBA proteins are not known to occur in people.
24 hours after transfection, MES cells were lysed as described above and all lysates were analyzed by ELISA. […] This is in contrast to the result observed in Example 5 above. The observed discrepancy can reflect the differences in total DNA transfected in the two paradigms (FIG. 2B; FIG. 2C versus FIG. 4), thereby leading to changes in the DNA:LIPOFECTAMINE® 2000 ratio, and in the role of co-expressed prosaposin (saposin C). It is therefore conceivable that wild-type GBA can have variable effects on αS levels in these MES23.5 cells, depending on the rate of αS import into lysosomes and the composition as well as activation state of more than one lysosomal enzyme.
MES23.5 cells were transfected with 0.5 μg per 10 cm dish of an αS-encoding, wild-type, human SNCA cDNA-carrying plasmid (referred to as MES-hSNCA WT cells in the Western blot shown in FIG. 6), plus either 1.25, 2.5 or 5 μg per 10 cm dish of a human Cathepsin D-encoding CTSD cDNA plasmid, which was purchased from OriGene Technologies, Inc., and was under the control of a CMV promoter. The Cathepsin D clone was fully sequence-verified after isolation and maxiprep. Each transfection arm was balanced with empty vector DNA up to a total of 5.5 μg DNA per 10 cm dish. 24 hours after transfection, cells were lysed, and the resulting lysates were analyzed by the sandwich ELISA described herein. […]

[3] = test system: MES-syn cells; test: MTT assay of cellular metabolism; type: cell-based, rodent; details: CTSD cDNA 5 μg/10 cm dish; control vector 100+/−4.05%; n=6
Description: To confirm that the effect of Cathepsin D on lowering of αS in MES23.5 cells was specific and was not caused by a general decrease in cellular metabolism and integrity, the MTT and LDH assays were performed on MES-syn cells that had been co-transfected with the highest amount of Cathepsin D-encoding cDNA (5 μg/10 cm dish). Lysis of cells with 0.1% Triton-X® 100 served as a positive control, representing maximal cell death.

Question: What does the source list for “cathepsin D: human lysosomal aspartyl protease expressed from CTSD cDNA plasmid under a CMV promoter”?
Answer: effect on level of co-transfected rat αS [1]: able to lower the levels of co-transfected rat αS; intracellular α-synuclein level, % of control levels ([2]; cathepsin D cDNA 1.25 μg/10 cm dish, 24 hours): 68+/−17.7%; intracellular α-synuclein level, % of control levels ([2]; cathepsin D cDNA 2.5 μg/10 cm dish, 24 hours): 53+/−16.8%; intracellular total α-synuclein level, % of control levels ([2]; cathepsin D cDNA 5 μg/10 cm dish, 24 hours, n=11): 25.3+/−7.0%; αS-lowering effect, percent of total intracellular αS concentration detectable ([2]; cathepsin D co-expression): ≤ 75%; MTT signal [3]: 101.3+/−3.91%
